Results: the supplement of paper PMC10307832

Columns and labels:
Assay in all cases: relative viability (nuclei count vs DMSO), 5 days (fraction); higher = more cells survive
NCI-H2228 = system: NCI-H2228
Outline: (§1)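 A single step with final 0.05% Triton X-100, 1% formaldehyde and 1 ug/ml Hoechst fixed the cells and stained nuclei 5 days after treatment. Lung cancer cell lines in 1536-well plates had been treated by pin tool the day after seeding with one drug alone or a fixed anchor-drug dose plus five library-drug doses (not always all listed) in √10 steps, and nuclei were counted on 4× images. Relative viability is the ratio of nuclei in treated wells to nuclei in vehicle wells, taken as the median of duplicate plates.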

RERF-LC-KJ = system: RERF-LC-KJ
Outline: as §1

SK-MES-1 = system: SK-MES-1
Outline: as §1

NCI-H23 = system: NCI-H23
Outline: as §1

LCLC-103H = system: LCLC-103H
Outline: as §1

NCI-H1734 = system: NCI-H1734
Outline: as §1

LC-2-ad = system: LC-2-ad
Outline: as §1

NCI-H1993 = system: NCI-H1993
Outline: as §1

NCI-H1355 = system: NCI-H1355
Outline: as §1

SW 1573 = system: SW 1573
Outline: as §1

NCI-H650 = system: NCI-H650
Outline: as §1

HCC-827 = system: HCC-827
Outline: as §1

NCI-H1755 = system: NCI-H1755
Outline: as §1

SK-LU-1 = system: SK-LU-1
Outline: as §1

NCI-H2347 = system: NCI-H2347
Outline: as §1

HCC-366 = system: HCC-366
Outline: as §1

NCI-H2342 = system: NCI-H2342
Outline: as §1

NCI-H1792 = system: NCI-H1792
Outline: as §1

UMC-11 = system: UMC-11
Outline: as §1

NCI-H1915 = system: NCI-H1915
Outline: as §1

NCI-H2170 = system: NCI-H2170
Outline: as §1

NCI-H1975 = system: NCI-H1975
Outline: as §1

## Cc1cn(-c2cc(NC(=O)c3ccc(C)c(Nc4nccc(-c5cccnc5)n4)c3)cc(C(F)(F)F)c2)cn1 [Nilotinib] + N=C(N)NC(=N)NCCc1ccccc1 [Phenformin] (partner 250 µM)
NCI-H2228; first compound 0.003162 µM
  relative viability: 0.388
NCI-H2228; first compound 0.01 µM
  relative viability: 0.383
NCI-H2228; first compound 0.03162 µM
  relative viability: 0.259
NCI-H2228; first compound 0.1 µM
  relative viability: 0.278
RERF-LC-KJ; first compound 0.001 µM
  relative viability: 0.406
RERF-LC-KJ; first compound 0.003162 µM
  relative viability: 0.449
RERF-LC-KJ; first compound 0.01 µM
  relative viability: 0.43
RERF-LC-KJ; first compound 0.03162 µM
  relative viability: 0.344
RERF-LC-KJ; first compound 0.1 µM
  relative viability: 0.453
SK-MES-1; first compound 0.001 µM
  relative viability: 0.614
SK-MES-1; first compound 0.003162 µM
  relative viability: 0.734
SK-MES-1; first compound 0.01 µM
  relative viability: 0.74
SK-MES-1; first compound 0.03162 µM
  relative viability: 0.566
SK-MES-1; first compound 0.1 µM
  relative viability: 0.554
NCI-H23; first compound 0.001 µM
  relative viability: 0.706
NCI-H23; first compound 0.003162 µM
  relative viability: 0.58
NCI-H23; first compound 0.01 µM
  relative viability: 0.891
NCI-H23; first compound 0.03162 µM
  relative viability: 0.624
NCI-H23; first compound 0.1 µM
  relative viability: 0.594
LCLC-103H; first compound 0.001 µM
  relative viability: 0.326
LCLC-103H; first compound 0.003162 µM
  relative viability: 0.307
LCLC-103H; first compound 0.01 µM
  relative viability: 0.338
LCLC-103H; first compound 0.03162 µM
  relative viability: 0.333
LCLC-103H; first compound 0.1 µM
  relative viability: 0.288
NCI-H1734; first compound 0.001 µM
  relative viability: 0.359
NCI-H1734; first compound 0.003162 µM
  relative viability: 0.396
NCI-H1734; first compound 0.01 µM
  relative viability: 0.368
NCI-H1734; first compound 0.03162 µM
  relative viability: 0.27
NCI-H1734; first compound 0.1 µM
  relative viability: 0.3
LC-2-ad; first compound 0.001 µM
  relative viability: 0.647
LC-2-ad; first compound 0.003162 µM
  relative viability: 0.659
LC-2-ad; first compound 0.01 µM
  relative viability: 0.557
LC-2-ad; first compound 0.03162 µM
  relative viability: 0.609
LC-2-ad; first compound 0.1 µM
  relative viability: 0.562
NCI-H1993; first compound 0.001 µM
  relative viability: 0.554
NCI-H1993; first compound 0.003162 µM
  relative viability: 0.55
NCI-H1993; first compound 0.01 µM
  relative viability: 0.522
NCI-H1993; first compound 0.03162 µM
  relative viability: 0.482
NCI-H1993; first compound 0.1 µM
  relative viability: 0.701
NCI-H1355; first compound 0.001 µM
  relative viability: 0.451
NCI-H1355; first compound 0.003162 µM
  relative viability: 0.426
NCI-H1355; first compound 0.01 µM
  relative viability: 0.401
NCI-H1355; first compound 0.03162 µM
  relative viability: 0.361
NCI-H1355; first compound 0.1 µM
  relative viability: 0.424
SW 1573; first compound 0.001 µM
  relative viability: 0.405
SW 1573; first compound 0.003162 µM
  relative viability: 0.445
SW 1573; first compound 0.01 µM
  relative viability: 0.412
SW 1573; first compound 0.03162 µM
  relative viability: 0.179
SW 1573; first compound 0.1 µM
  relative viability: 0.289
NCI-H650; first compound 0.001 µM
  relative viability: 0.444
NCI-H650; first compound 0.003162 µM
  relative viability: 0.428
NCI-H650; first compound 0.01 µM
  relative viability: 0.447
NCI-H650; first compound 0.03162 µM
  relative viability: 0.38
NCI-H650; first compound 0.1 µM
  relative viability: 0.397
HCC-827; first compound 0.003162 µM
  relative viability: 0.436
HCC-827; first compound 0.01 µM
  relative viability: 0.384
HCC-827; first compound 0.03162 µM
  relative viability: 0.438
HCC-827; first compound 0.1 µM
  relative viability: 0.384
NCI-H1755; first compound 0.001 µM
  relative viability: 0.589
NCI-H1755; first compound 0.003162 µM
  relative viability: 0.616
NCI-H1755; first compound 0.01 µM
  relative viability: 0.564
NCI-H1755; first compound 0.03162 µM
  relative viability: 0.534
NCI-H1755; first compound 0.1 µM
  relative viability: 0.486
SK-LU-1; first compound 0.001 µM
  relative viability: 0.47
SK-LU-1; first compound 0.003162 µM
  relative viability: 0.455
SK-LU-1; first compound 0.01 µM
  relative viability: 0.597
SK-LU-1; first compound 0.03162 µM
  relative viability: 0.402
SK-LU-1; first compound 0.1 µM
  relative viability: 0.306
NCI-H2347; first compound 0.001 µM
  relative viability: 0.386
NCI-H2347; first compound 0.003162 µM
  relative viability: 0.308
NCI-H2347; first compound 0.01 µM
  relative viability: 0.551
NCI-H2347; first compound 0.03162 µM
  relative viability: 0.277
NCI-H2347; first compound 0.1 µM
  relative viability: 0.327
HCC-366; first compound 0.001 µM
  relative viability: 0.623
HCC-366; first compound 0.003162 µM
  relative viability: 0.584
HCC-366; first compound 0.01 µM
  relative viability: 0.655
HCC-366; first compound 0.03162 µM
  relative viability: 0.257
HCC-366; first compound 0.1 µM
  relative viability: 0.555
NCI-H2342; first compound 0.001 µM
  relative viability: 0.534
NCI-H2342; first compound 0.003162 µM
  relative viability: 0.614
NCI-H2342; first compound 0.01 µM
  relative viability: 0.556
NCI-H2342; first compound 0.03162 µM
  relative viability: 0.523
NCI-H2342; first compound 0.1 µM
  relative viability: 0.504
NCI-H1792; first compound 0.001 µM
  relative viability: 0.277
NCI-H1792; first compound 0.003162 µM
  relative viability: 0.318
NCI-H1792; first compound 0.01 µM
  relative viability: 0.164
NCI-H1792; first compound 0.03162 µM
  relative viability: 0.203
NCI-H1792; first compound 0.1 µM
  relative viability: 0.259
UMC-11; first compound 0.001 µM
  relative viability: 0.312
UMC-11; first compound 0.003162 µM
  relative viability: 0.344
UMC-11; first compound 0.01 µM
  relative viability: 0.324
UMC-11; first compound 0.1 µM
  relative viability: 0.217
NCI-H1915; first compound 0.001 µM
  relative viability: 0.372
NCI-H1915; first compound 0.003162 µM
  relative viability: 0.394
NCI-H1915; first compound 0.01 µM
  relative viability: 0.413
NCI-H1915; first compound 0.03162 µM
  relative viability: 0.372
NCI-H1915; first compound 0.1 µM
  relative viability: 0.381
NCI-H2170; first compound 0.001 µM
  relative viability: 0.408
NCI-H2170; first compound 0.003162 µM
  relative viability: 0.432
NCI-H2170; first compound 0.01 µM
  relative viability: 0.409
NCI-H2170; first compound 0.03162 µM
  relative viability: 0.394
NCI-H2170; first compound 0.1 µM
  relative viability: 0.363
NCI-H1975; first compound 0.001 µM
  relative viability: 0.406
NCI-H1975; first compound 0.003162 µM
  relative viability: 0.438
NCI-H1975; first compound 0.01 µM
  relative viability: 0.413
NCI-H1975; first compound 0.03162 µM
  relative viability: 0.363
NCI-H1975; first compound 0.1 µM
  relative viability: 0.378
